Results published in US6737383B1, “Herbicidal oxadiazolidines” (priority 1999, dated 2004).

Key:
sugar beet = test: Test B pre/postemergence sugar beet; type: in vivo, Beta vulgaris
How it was run: (§1)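 Test chemicals in a non-phytotoxic solvent mixture with surfactant were sprayed preemergence onto planted seeds and postemergence onto plants 2 to 18 cm tall (1- to 4-leaf stage). After twelve to sixteen days in a greenhouse, injury was visually rated against untreated controls from 0 (no effect) to 10 (complete control).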

pigweed = test: Test B pre/postemergence pigweed; type: in vivo, Amaranthus retroflexus
How it was run: as §1

rice = test: Test B flood test rice; type: in vivo, Oryza sativa; settings: for Plant response rating, Rice (0 to 10 scale, 0 is no effect, 10 is complete control): Rate 62 g/ha, Pre-emergence; for Plant response rating, Rice (0 to 10 scale, 0 is no effect, 10 is complete control) / Rice plant response rating (0 to 10 scale, 0 is no effect, 10 is complete control): flood test species, visual evaluation after twelve to sixteen days; for Rice plant response rating (0 to 10 scale, 0 is no effect, 10 is complete control): Rate 125 g/ha, under heading Pre-emergence
How it was run: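 Flood test on plants grown to the 2-leaf stage; treated plants kept in greenhouse twelve to sixteen days, then visually rated against controls on a 0 (no effect) to 10 (complete control) scale.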

purple nutsedge = test: Test B pre/postemergence purple nutsedge; type: in vivo, Cyperus rotundus
How it was run: as §1

[1] = Postemergence, Rate 62 g/ha, scale 0 to 10, 0 is no effect, 10 is complete control
[2] = Postemergence, Rate 125 g/ha, scale of 0 to 10 where 0 is no effect and 10 is complete control
[3] = Postemergence, Rate 250 g/ha, scale of 0 to 10, 0 is no effect, 10 is complete control
[4] = Preemergence, Rate 62 g/ha, scale 0 to 10 (0 no effect, 10 complete control)
[5] = Preemergence, Rate 125 g/ha, scale of 0 to 10 where 0 is no effect and 10 is complete control
[6] = Preemergence, Rate 250 g/ha, scale 0 to 10 (0 no effect, 10 complete control)
[7] = Preemergence, Rate 500 g/ha, scale of 0 to 10 where 0 is no effect and 10 is complete control
[8] = Rate 250 g/ha, Pre-emergence (flood test species), scale 0 to 10, 0 is no effect, 10 is complete control
[9] = Rate 500 g/ha, Pre-emergence section of Table B, 0 to 10 scale (0 no effect, 10 complete control)
[10] = Postemergence, Rate 500 g/ha, scale of 0 to 10 where 0 is no effect and 10 is complete control
[11] = Preemergence, Rate 62 g/ha, scale of 0 to 10 where 0 is no effect and 10 is complete control
[12] = Rate 500 g/ha, Postemergence, scale 0 to 10, 0 is no effect, 10 is complete control

Compound	Plant response rating, Sugarbeets (sugar beet; [1])	Plant response rating, Sugarbeets (sugar beet; [2])	Sugarbeets plant response rating (sugar beet; [3])	Sugarbeets plant response rating (sugar beet; [5])	Plant response rating, Sugarbeets (sugar beet; [6])	Plant response rating, Sugarbeets (sugar beet; [7])	Plant response rating, Redroot pigweed (pigweed; [1])	Redroot pigweed plant response rating (pigweed; [5])	Plant response rating, Redroot pigweed (pigweed; [6])	Plant response rating, Redroot pigweed (pigweed; [7])	Plant response rating, Rice (0 to 10 scale, 0 is no effect, 10 is complete control) (rice)	Rice plant response rating (0 to 10 scale, 0 is no effect, 10 is complete control) (rice)	Rice plant response rating (rice; [8])	Rice plant response rating (rice; [9])	Plant response rating, Nutsedge (purple nutsedge; [1])	Nutsedge plant response rating (purple nutsedge; [5])	Plant response rating, Nutsedge (purple nutsedge; [6])	Plant response rating, Nutsedge (purple nutsedge; [7])	Redroot pigweed plant response rating (pigweed; [11])	Nutsedge plant response rating (purple nutsedge; [11])	also measured
CCOC(Cn1c(=O)on(C(=O)N(c2ccc(F)cc2F)C(C)C)c1=O)OCC [Compound 630]	0	0	0	4	4	7	0	9	10	10	0	0	0	0	0	0	0	3	–	–	Sugarbeets plant response rating (sugar beet; [4]): 0; Plant response rating, Redroot pigweed (pigweed; [2]): 0; Redroot pigweed plant response rating (pigweed; [3]): 1; Redroot pigweed plant response rating (pigweed; [4]): 2; Plant response rating, Nutsedge (purple nutsedge; [2]): 0; Plant response rating, Nutsedge (purple nutsedge; [10]): 0; Nutsedge plant response rating (purple nutsedge; [4]): 0
CCOC(Cn1c(=O)on(C(=O)N(c2ccc(Cl)cc2)C(C)C)c1=O)OCC [Compound 633]	0	0	0	0	0	0	0	0	2	4	0	0	0	0	0	0	0	0	–	–	Sugarbeets plant response rating (sugar beet; [4]): 0; Plant response rating, Redroot pigweed (pigweed; [2]): 0; Redroot pigweed plant response rating (pigweed; [3]): 1; Redroot pigweed plant response rating (pigweed; [4]): 0; Plant response rating, Nutsedge (purple nutsedge; [2]): 0; Nutsedge plant response rating (purple nutsedge; [3]): 0; Plant response rating, Nutsedge (purple nutsedge; [10]): 0; Nutsedge plant response rating (purple nutsedge; [4]): 0
CC(C)N(C(=O)n1oc(=O)n(CC(=O)C2CCC2)c1=O)c1ccc(F)cc1 [Compound 640]	0	0	0	2	6	6	0	0	2	7	0	0	0	0	0	0	–	0	0	0	Sugarbeets plant response rating (sugar beet; [11]): 0; Plant response rating, Redroot pigweed (pigweed; [2]): 0; Redroot pigweed plant response rating (pigweed; [3]): 4; Plant response rating, Nutsedge (purple nutsedge; [2]): 0; Nutsedge plant response rating (purple nutsedge; [3]): 0
CC(C)N(C(=O)n1oc(=O)n(Cc2nnc(Cl)s2)c1=O)c1ccc(F)cc1F [Compound 645]	0	–	–	0	0	0	0	0	0	4	0	0	0	0	0	0	0	0	0	0	Sugarbeets plant response rating (sugar beet; [2]): 0; Sugarbeets plant response rating (sugar beet; [11]): 0; Redroot pigweed plant response rating (pigweed; [2]): 2; Nutsedge plant response rating (purple nutsedge; [2]): 0
CC(C)N(C(=O)n1oc(=O)n(Cc2nnc(Cl)s2)c1=O)c1ccc(F)cc1 [Compound 646]	0	–	–	0	0	0	0	0	0	0	0	0	0	0	0	0	0	0	0	0	Sugarbeets plant response rating (sugar beet; [2]): 0; Sugarbeets plant response rating (sugar beet; [11]): 0; Redroot pigweed plant response rating (pigweed; [2]): 0; Nutsedge plant response rating (purple nutsedge; [2]): 0; Plant response rating, Nutsedge (purple nutsedge; [10]): 0
C=C(Cn1c(=O)on(C(=O)N(c2ccccc2)C(C)C)c1=O)C(C)C [Compound 649]	0	–	–	0	0	0	0	0	0	0	0	0	0	0	0	0	0	0	0	0	Sugarbeets plant response rating (sugar beet; [2]): 0; Sugarbeets plant response rating (sugar beet; [12]): 0; Redroot pigweed plant response rating (pigweed; [2]): 0; Redroot pigweed plant response rating (pigweed; [12]): 0; Nutsedge plant response rating (purple nutsedge; [2]): 0; Nutsedge plant response rating (purple nutsedge; [12]): 0
